Measurements reported in ChEMBL document CHEMBL2046359, “Novel tricyclic indeno[2,1-d]pyrimidines with dual antiangiogenic and cytotoxic activities as potent antitumor agents” (Bioorg Med Chem, 2012).
Active and inactive are the calls of the source. The rule behind the calls is not given here.

Tests used:
[1] = target: T1, Dihydrofolate reductase (Homo sapiens, UniProt P00374)
T1 sequence (P00374 whole entry): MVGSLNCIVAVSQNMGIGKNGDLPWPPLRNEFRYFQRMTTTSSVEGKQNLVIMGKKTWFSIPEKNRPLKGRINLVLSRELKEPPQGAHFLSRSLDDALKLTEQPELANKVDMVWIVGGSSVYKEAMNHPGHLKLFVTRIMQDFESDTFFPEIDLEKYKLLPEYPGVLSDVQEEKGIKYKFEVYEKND

[2] = target: T2, Bifunctional dihydrofolate reductase-thymidylate synthase (Toxoplasma gondii, UniProt Q07422); test: Inhibition of Toxoplasma gondii thymidylate synthase
T2 sequence (Q07422 whole entry): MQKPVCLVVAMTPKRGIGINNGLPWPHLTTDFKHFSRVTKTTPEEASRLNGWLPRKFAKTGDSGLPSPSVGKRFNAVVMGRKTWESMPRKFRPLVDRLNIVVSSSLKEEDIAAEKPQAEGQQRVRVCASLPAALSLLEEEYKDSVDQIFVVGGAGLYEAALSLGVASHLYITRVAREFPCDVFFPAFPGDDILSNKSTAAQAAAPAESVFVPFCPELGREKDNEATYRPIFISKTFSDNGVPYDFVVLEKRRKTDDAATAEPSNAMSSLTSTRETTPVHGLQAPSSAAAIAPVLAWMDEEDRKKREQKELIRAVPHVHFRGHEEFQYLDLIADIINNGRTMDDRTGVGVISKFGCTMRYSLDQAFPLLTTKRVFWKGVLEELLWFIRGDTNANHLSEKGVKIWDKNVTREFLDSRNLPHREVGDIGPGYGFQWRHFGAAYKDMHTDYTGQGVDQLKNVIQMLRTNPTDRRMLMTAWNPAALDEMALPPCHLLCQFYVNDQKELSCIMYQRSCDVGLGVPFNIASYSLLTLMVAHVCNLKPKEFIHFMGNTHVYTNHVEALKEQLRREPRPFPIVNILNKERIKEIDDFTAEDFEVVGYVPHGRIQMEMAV

[3] = system: A-431; test: Antiproliferative activity against human A431 cells after 48 hrs by CYQUANT assay; type: functional, cell-based; conditions: A-431, 48 h
[4] = target: Thymidylate synthase (Homo sapiens, UniProt P04818); test: Inhibition of human thymidylate synthase
[5] = target: T2, Bifunctional dihydrofolate reductase-thymidylate synthase; test: Inhibition of Toxoplasma gondii DHFR
[6] = target: Epidermal growth factor receptor (Homo sapiens, UniProt P00533); type: cell-based, A-431
[7] = Inhibition of Escherichia coli thymidylate synthase
[8] = target: Dihydroorotate dehydrogenase (quinone), mitochondrial (Homo sapiens, UniProt Q02127); test: Inhibition of human DHODH
[9] = target: T3, Dihydroorotate dehydrogenase (Plasmodium falciparum, UniProt Q54A96); test: Inhibition of Plasmodium falciparum DHODH
T3 sequence (Q54A96 whole entry): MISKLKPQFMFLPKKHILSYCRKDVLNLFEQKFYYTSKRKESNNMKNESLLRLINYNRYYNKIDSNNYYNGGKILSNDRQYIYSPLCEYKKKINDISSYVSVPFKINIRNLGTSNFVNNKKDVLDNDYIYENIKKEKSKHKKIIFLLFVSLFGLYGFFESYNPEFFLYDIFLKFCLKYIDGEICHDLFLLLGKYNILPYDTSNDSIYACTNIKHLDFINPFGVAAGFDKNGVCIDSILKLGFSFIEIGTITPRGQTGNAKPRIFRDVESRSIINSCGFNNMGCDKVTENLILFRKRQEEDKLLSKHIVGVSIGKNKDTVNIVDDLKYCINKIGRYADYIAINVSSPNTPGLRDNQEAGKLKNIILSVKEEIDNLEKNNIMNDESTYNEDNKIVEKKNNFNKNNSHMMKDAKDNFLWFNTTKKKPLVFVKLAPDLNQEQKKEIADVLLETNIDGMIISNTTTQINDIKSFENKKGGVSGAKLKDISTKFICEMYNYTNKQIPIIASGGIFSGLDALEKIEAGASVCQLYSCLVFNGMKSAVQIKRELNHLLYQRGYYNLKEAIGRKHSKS

[10] = system: ACHN; test: cells; conditions: Homo sapiens
[11] = system: IGROV-1; test: cells; conditions: Homo sapiens
[12] = system: OVCAR-8; test: cells; conditions: Homo sapiens
[13] = cells; conditions: Homo sapiens, NCI/ADR-RES
[14] = system: SF-539; test: cells; conditions: Homo sapiens
[15] = system: NCI-H522; test: cells; conditions: Homo sapiens
[16] = system: CAKI-1; test: cells; conditions: Homo sapiens
[17] = system: Malme-3M; test: cells; conditions: Homo sapiens
[18] = system: SK-MEL-5; test: cells; conditions: Homo sapiens
[19] = system: COLO 205; test: cells; conditions: Homo sapiens
[20] = system: HOP-92; test: cells; conditions: Homo sapiens
[21] = system: A549; test: cells; conditions: Homo sapiens
[22] = system: UACC-62; test: cells; conditions: Homo sapiens
[23] = system: NCI-H322M; test: cells; conditions: Homo sapiens
[24] = system: MDA-MB-435; test: cells; conditions: Homo sapiens
[25] = system: MDA-MB-231; test: cells; conditions: Homo sapiens
[26] = system: U-251; test: cells; conditions: Homo sapiens
[27] = system: LOX IMVI; test: cells; conditions: Homo sapiens
[28] = system: RPMI-8226; test: cells; conditions: Homo sapiens
[29] = system: SNB-19; test: cells; conditions: Homo sapiens
[30] = system: PC-3; test: cells; conditions: Homo sapiens
[31] = system: NCI-H226; test: cells; conditions: Homo sapiens
[32] = system: SK-OV-3; test: cells; conditions: Homo sapiens
[33] = system: Mus musculus; test: Toxicity in NCr nu/nu mouse allografted with mouse B16F10 cells at 35 mg/kg, ip administered three times a week for 4 weeks; type: organism-based, B16-F10; design: dose 35 mg/kg, route intraperitoneal; conditions: in vivo, 672 h
[34] = system: NCI-H23; test: cells; conditions: Homo sapiens
[35] = system: SF-268; test: cells; conditions: Homo sapiens
[36] = cells; conditions: Homo sapiens, Hs-578T
[37] = system: M14; test: cells; conditions: Homo sapiens
[38] = system: OVCAR-3; test: cells; conditions: Homo sapiens
[39] = system: MOLT-4; test: cells; conditions: Homo sapiens
[40] = system: BT-549; test: cells; conditions: Homo sapiens
[41] = system: HL-60(TB); test: cells; conditions: Homo sapiens
[42] = system: SK-MEL-28; test: cells; conditions: Homo sapiens
[43] = system: DU-145; test: cells; conditions: Homo sapiens
[44] = system: UACC-257; test: cells; conditions: Homo sapiens
[45] = system: SK-MEL-2; test: cells; conditions: Homo sapiens
[46] = system: SW-620; test: cells; conditions: Homo sapiens
[47] = system: HCT-116; test: cells; conditions: Homo sapiens
[48] = system: SF-295; test: cells; conditions: Homo sapiens
[49] = system: A498; test: cells; conditions: Homo sapiens
[50] = system: B16-F10; test: Antitumor activity against mouse B16F10 cells allografted in NCr nu/nu mouse assessed as inhibition of tumor angiogenesis at 35 mg/kg, ip administered three times weekly for 2 weeks
[51] = system: TK-10; test: cells; conditions: Homo sapiens
[52] = system: RXF 393; test: cells; conditions: Homo sapiens
[53] = system: T47D; test: cells; conditions: Homo sapiens
[54] = system: KM12; test: cells; conditions: Homo sapiens
[55] = system: MCF7; test: cells; conditions: Homo sapiens
[56] = system: 786-0; test: cells; conditions: Homo sapiens
[57] = system: EKVX; test: cells; conditions: Homo sapiens
[58] = system: B16-F10; test: Antitumor activity against mouse B16F10 cells allografted in NCr nu/nu mouse assessed as tumor growth reduction at 35 mg/kg, ip administered three times weekly for 2 weeks
[59] = system: SR; test: cells; conditions: Homo sapiens
[60] = system: OVCAR-4; test: cells; conditions: Homo sapiens
[61] = target: Vascular endothelial growth factor receptor 2 (Homo sapiens, UniProt P35968); type: cell-based, U-251
[62] = system: Mus musculus; test: Toxicity in NCr nu/nu mouse allografted with mouse B16F10 cells assessed as weight loss at 35 mg/kg, ip administered three times a week for 4 weeks; type: organism-based, B16-F10; design: dose 35 mg/kg, route intraperitoneal; conditions: in vivo, 672 h
[63] = system: SNB-75; test: cells; conditions: Homo sapiens
[64] = system: UO-31; test: cells; conditions: Homo sapiens
[65] = system: HOP-62; test: cells; conditions: Homo sapiens
[66] = system: CCRF-CEM; test: cells; conditions: Homo sapiens
[67] = system: HCT-15; test: cells; conditions: Homo sapiens
[68] = system: K562; test: cells; conditions: Homo sapiens
[69] = system: NCI-H460; test: cells; conditions: Homo sapiens
[70] = system: B16-F10; test: Antitumor activity against mouse B16F10 cells allografted in NCr nu/nu mouse assessed as decrease in tumor metastasis at 35 mg/kg, ip administered three times weekly for 2 weeks
[71] = system: SN12C; test: cells; conditions: Homo sapiens
[72] = target: Platelet-derived growth factor receptor beta (Homo sapiens, UniProt P09619); test: Inhibition of PDGFRbeta in human SF539 cells pretreated for 60 mins measured after 10 mins by ELISA
[73] = Antiangiogenic activity in VEGF/bFGF-stimulated chicken embryo after 48 hrs by CAM assay; type: functional, Gallus gallus

Dihydroorotate dehydrogenase (quinone), mitochondrial, sequence (Q02127 whole entry): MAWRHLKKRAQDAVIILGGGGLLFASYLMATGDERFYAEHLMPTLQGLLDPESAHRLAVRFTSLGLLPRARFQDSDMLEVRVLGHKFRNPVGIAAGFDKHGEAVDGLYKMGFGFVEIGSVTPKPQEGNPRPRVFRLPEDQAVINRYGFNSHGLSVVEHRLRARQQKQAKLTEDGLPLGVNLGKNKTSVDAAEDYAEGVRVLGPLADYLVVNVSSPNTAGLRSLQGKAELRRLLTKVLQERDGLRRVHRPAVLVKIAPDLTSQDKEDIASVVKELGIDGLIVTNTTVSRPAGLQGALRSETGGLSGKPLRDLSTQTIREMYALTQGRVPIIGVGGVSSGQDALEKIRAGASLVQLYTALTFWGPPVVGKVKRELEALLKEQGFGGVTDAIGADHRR
Thymidylate synthase, sequence (P04818 whole entry): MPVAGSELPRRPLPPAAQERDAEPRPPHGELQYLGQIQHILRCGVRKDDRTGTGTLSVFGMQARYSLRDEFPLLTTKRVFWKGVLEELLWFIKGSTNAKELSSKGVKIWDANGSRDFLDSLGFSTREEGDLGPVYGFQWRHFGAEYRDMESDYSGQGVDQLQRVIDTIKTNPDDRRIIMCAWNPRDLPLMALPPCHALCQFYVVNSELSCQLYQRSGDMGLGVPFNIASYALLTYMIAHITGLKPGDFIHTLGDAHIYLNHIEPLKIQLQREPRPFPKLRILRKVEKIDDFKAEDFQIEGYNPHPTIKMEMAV
Epidermal growth factor receptor, sequence (P00533 whole entry): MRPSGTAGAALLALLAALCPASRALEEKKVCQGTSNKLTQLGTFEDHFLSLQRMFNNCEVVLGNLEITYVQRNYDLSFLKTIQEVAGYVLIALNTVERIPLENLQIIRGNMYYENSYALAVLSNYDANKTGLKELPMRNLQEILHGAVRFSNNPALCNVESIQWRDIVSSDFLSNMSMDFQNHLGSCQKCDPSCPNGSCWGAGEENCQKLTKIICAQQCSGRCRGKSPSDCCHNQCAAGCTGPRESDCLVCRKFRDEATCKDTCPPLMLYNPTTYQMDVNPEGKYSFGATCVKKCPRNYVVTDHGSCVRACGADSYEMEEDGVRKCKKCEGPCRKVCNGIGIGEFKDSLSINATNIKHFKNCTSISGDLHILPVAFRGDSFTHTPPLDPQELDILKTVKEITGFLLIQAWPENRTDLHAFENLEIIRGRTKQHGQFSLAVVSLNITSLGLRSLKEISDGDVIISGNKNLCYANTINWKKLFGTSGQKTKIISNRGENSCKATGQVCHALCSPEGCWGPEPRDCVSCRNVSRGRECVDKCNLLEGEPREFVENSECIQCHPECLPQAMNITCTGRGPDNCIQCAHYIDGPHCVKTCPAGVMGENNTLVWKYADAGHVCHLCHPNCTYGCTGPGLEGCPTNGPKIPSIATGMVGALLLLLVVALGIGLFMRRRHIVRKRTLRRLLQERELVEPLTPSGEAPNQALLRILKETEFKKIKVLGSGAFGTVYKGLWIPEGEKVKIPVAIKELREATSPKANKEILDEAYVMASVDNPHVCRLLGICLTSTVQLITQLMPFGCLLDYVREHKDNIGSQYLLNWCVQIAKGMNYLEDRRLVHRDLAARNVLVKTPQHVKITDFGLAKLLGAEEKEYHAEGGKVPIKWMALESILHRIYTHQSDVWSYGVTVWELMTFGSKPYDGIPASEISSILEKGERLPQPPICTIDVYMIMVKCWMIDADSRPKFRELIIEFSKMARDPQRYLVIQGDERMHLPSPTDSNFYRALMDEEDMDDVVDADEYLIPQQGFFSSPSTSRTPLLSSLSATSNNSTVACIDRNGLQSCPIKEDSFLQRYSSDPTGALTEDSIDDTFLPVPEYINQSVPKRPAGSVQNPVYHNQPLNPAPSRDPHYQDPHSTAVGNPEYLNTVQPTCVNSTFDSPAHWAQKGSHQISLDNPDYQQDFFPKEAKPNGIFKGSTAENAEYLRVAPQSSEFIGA
Vascular endothelial growth factor receptor 2, sequence (P35968 whole entry): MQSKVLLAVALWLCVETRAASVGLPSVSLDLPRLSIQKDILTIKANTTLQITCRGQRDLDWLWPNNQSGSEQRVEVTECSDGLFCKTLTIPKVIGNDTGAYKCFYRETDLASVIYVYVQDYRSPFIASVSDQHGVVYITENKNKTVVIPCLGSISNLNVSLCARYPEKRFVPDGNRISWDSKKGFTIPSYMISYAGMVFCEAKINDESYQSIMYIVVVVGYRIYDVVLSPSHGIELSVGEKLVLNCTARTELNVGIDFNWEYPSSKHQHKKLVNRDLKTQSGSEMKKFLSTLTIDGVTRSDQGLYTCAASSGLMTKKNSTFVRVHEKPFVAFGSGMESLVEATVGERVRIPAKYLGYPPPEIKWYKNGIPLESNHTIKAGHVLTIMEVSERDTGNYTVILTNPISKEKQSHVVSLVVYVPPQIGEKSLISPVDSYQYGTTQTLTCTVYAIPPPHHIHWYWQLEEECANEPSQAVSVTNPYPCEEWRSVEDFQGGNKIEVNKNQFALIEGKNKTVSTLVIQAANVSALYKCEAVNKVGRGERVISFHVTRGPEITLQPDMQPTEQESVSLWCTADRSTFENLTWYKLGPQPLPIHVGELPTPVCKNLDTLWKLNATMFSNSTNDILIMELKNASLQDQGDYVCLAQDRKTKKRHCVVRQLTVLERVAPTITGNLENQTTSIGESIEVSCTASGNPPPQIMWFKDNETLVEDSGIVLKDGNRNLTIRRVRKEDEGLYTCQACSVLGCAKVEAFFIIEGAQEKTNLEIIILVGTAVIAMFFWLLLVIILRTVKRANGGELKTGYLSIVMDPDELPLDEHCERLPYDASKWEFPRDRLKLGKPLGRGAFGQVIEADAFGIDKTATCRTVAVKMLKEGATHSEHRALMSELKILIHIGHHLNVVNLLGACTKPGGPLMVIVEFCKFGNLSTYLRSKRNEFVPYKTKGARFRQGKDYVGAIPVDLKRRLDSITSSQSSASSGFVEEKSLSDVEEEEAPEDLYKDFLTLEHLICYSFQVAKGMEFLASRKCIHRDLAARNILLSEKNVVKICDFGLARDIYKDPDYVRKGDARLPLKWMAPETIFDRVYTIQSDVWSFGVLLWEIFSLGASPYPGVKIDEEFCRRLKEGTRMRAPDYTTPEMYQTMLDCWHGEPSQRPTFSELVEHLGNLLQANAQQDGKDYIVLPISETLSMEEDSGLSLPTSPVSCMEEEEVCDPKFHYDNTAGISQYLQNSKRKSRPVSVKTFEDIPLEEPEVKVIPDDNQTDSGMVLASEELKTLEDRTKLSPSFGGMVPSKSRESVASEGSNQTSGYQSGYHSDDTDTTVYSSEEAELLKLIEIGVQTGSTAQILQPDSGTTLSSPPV
Platelet-derived growth factor receptor beta, sequence (P09619 whole entry): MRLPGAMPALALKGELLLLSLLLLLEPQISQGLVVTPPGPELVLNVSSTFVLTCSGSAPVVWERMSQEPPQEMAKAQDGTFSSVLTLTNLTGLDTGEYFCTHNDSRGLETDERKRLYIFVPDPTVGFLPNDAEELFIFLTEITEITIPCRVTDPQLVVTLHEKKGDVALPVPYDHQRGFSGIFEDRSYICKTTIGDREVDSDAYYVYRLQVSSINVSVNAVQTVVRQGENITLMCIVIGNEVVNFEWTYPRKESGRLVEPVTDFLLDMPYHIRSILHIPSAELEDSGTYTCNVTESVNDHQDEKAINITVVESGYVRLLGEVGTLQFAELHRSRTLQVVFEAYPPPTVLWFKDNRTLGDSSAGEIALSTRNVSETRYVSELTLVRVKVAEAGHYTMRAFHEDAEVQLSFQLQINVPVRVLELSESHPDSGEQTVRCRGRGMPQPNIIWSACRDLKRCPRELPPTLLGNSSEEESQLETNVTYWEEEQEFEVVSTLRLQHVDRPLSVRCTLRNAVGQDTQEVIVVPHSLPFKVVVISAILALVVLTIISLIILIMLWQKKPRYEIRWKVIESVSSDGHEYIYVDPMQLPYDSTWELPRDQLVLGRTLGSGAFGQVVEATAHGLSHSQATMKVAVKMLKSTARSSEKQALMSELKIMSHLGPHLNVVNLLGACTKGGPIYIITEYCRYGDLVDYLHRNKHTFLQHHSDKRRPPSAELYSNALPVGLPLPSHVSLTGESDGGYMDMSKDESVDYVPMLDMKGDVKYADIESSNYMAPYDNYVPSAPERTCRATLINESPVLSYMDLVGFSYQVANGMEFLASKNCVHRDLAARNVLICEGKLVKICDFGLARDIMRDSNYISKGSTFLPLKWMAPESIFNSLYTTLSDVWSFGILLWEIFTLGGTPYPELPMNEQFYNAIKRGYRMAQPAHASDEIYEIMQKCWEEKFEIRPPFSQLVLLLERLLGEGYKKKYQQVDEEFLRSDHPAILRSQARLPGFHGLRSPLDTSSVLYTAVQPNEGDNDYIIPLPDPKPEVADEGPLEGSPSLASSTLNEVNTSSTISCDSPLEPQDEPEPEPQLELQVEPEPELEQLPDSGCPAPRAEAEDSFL

Nc1nc2c(c(Nc3ccc(F)c(Cl)c3)n1)-c1ccccc1C2
IC50 [1]: > 16000 nM
IC50 [2]: > 13000 nM
IC50 [3]: 158000 nM
IC50 [4]: > 13000 nM
IC50 [5]: > 16000 nM
IC50 [6]: > 200000 nM
IC50 [7]: > 13000 nM

Nc1nc2c(c(Nc3cccc(F)c3)n1)-c1ccccc1C2
IC50 [3]: 9800 nM
IC50 [8]: > 200000 nM
IC50 [6]: > 300000 nM
IC50 [9]: > 200000 nM

CC(C)c1ccc(Nc2nc(N)nc3c2-c2ccccc2C3)cc1
IC50 [1]: > 16000 nM
IC50 [2]: > 14000 nM
IC50 [3]: 126000 nM
IC50 [4]: > 14000 nM
IC50 [5]: > 16000 nM
IC50 [7]: > 14000 nM

Nc1nc2c(c(Nc3ccc(Cl)cc3)n1)-c1ccccc1C2
GI50 [10]: 3420 nM
GI50 [11]: 287 nM
IC50 [1]: > 16000 nM
GI50 [12]: 216 nM
GI50 [13]: 787 nM
GI50 [14]: 381 nM
GI50 [15]: 622 nM
GI50 [16]: 1080 nM
GI50 [17]: > 10000 nM
IC50 [2]: > 14000 nM
GI50 [18]: 513 nM
GI50 [19]: 638 nM
GI50 [20]: 18100 nM
GI50 [21]: 43.4 nM
IC50 [3]: 9700 nM
GI50 [22]: 641 nM
IC50 [4]: > 14000 nM
GI50 [23]: 1350 nM
GI50 [24]: 554 nM
GI50 [25]: 641 nM
GI50 [26]: 184 nM
GI50 [27]: 308 nM
GI50 [28]: 489 nM
GI50 [29]: 113 nM
GI50 [30]: 715 nM
GI50 [31]: 2140 nM
GI50 [32]: 2090 nM
Activity [33]: Non-toxic
GI50 [34]: 565 nM
GI50 [35]: 86.2 nM
IC50 [5]: > 16000 nM
GI50 [36]: 2220 nM
GI50 [37]: 431 nM
GI50 [38]: 216 nM
GI50 [39]: 66.1 nM
GI50 [40]: 2830 nM
GI50 [41]: 150 nM
GI50 [42]: 1510 nM
GI50 [43]: 212 nM
GI50 [44]: 84.5 nM
GI50 [45]: 558 nM
GI50 [46]: 63 nM
GI50 [47]: 38.1 nM
GI50 [48]: 547 nM
GI50 [49]: 2490 nM
Activity [50]: Active
GI50 [51]: 2150 nM
GI50 [52]: 2910 nM
GI50 [53]: 2900 nM
GI50 [54]: 330 nM
GI50 [55]: 73.4 nM
IC50 [8]: > 200000 nM
GI50 [56]: 514 nM
GI50 [57]: 2710 nM
growth inhibition (GI) [58]: Active
GI50 [59]: 484 nM
GI50 [60]: 2090 nM
IC50 [61]: > 200000 nM
Activity [62]: Non-toxic
GI50 [63]: 5030 nM
GI50 [64]: 790 nM
GI50 [65]: 654 nM
GI50 [66]: 31.2 nM
GI50 [67]: 434 nM
GI50 [68]: 366 nM
IC50 [7]: > 14000 nM
IC50 [9]: > 200000 nM
GI50 [69]: 19.3 nM
Activity [70]: inactive
GI50 [71]: 189 nM

Nc1nc2c(c(Nc3ccc(C(F)(F)F)cc3)n1)-c1ccccc1C2
IC50 [3]: 306000 nM
IC50 [72]: 23100 nM
IC50 [6]: > 300000 nM
IC50 [61]: > 200000 nM
IC50 [73]: 8100 nM

COc1cccc(Nc2nc(N)nc3c2-c2ccccc2C3)c1
IC50 [3]: 13900 nM
IC50 [8]: > 200000 nM
IC50 [6]: > 200000 nM
IC50 [9]: > 200000 nM

Nc1nc2c(c(Nc3ccc(Cl)cc3F)n1)-c1ccccc1C2
IC50 [1]: > 16000 nM
IC50 [2]: > 13000 nM
IC50 [3]: 9700 nM
IC50 [4]: > 13000 nM
IC50 [5]: > 16000 nM
IC50 [8]: > 200000 nM
IC50 [7]: > 13000 nM
IC50 [9]: > 200000 nM
